Assay results taken from patent US5824670A, “17-deoxycorticosteroid-21-[O]carboxylic esters, processes for their preparation and pharmaceuticals containing these compounds” (priority 1994, dated 1998).

What was measured:
[1] = tested on: allergic inflammation of the delayed type (oxazolone ear edema); assay: Local antiinflammatory effect in oxazolone ear edema in mice following epicutaneous application; assay type: in vivo, male NMRI mice; conditions: for inflammatory edematous swelling, difference between right and left auricle weights (x ± s) / Inhibition in %: 24 h; for inflammatory edematous swelling, difference between right and left auricle weights (x ± s): mice; for Inhibition in %: vs control
Text: 1. Local antiinflammatory effect in oxazolone ear edema in mice following epicutaneous application.
The method described by Evans, D. P. et al., Br. J. Pharmacol 43, 403 (1971) was used. In mice, 4-ethoxy-methylene-2-phenyl-2-oxazoline (oxazolone) produces an allergic inflammation of the delayed type which can be inhibited by corticosteroids. The experimental animals employed are male NMRI mice of 25 g body weight which are divided into groups of 10 animals each. The animals were sensitized by applying 0.1 ml of a 2% solution of oxazolone in acetone to the shaven skin of the abdomen. On the 9th day following this sensitization, the allergic inflammation was triggered by applying 10 μl of a 2% solution of oxazolone/acetone to the inner side of the right ear auricle (control group). In the treated groups, the abovementioned solution contained the test preparations. 24 hours after applying the solutions, the animals were killed with CO2. A circular sample, measuring 8 mm, was punched out from each of the treated right ear auricle and the untreated left ear auricle. The samples were weighed immediately, with the difference between the right and left auricle weights representing the measure of the degree of inflammation. This inflammatory edematous swelling, in mg, was set to equal 100% in the control group, and the inflammation-inhibiting effect of the preparations is given as the percentage inhibition as compared with the control.

carrageenin paw edema = assay: Systemic activity following subcutaneous administration in the carrageenin paw edema test in rats; assay type: in vivo, Male Sprague-Dawley rats; conditions: for Increase at 3 h (paw volume) / Increase at 6 h (paw volume): x ± s, * = p<0.05 Dunnett
Method: 2a. Testing for systemic activity following subcutaneous administration in the carrageenin paw edema test in rats The method was described by Winter, C. A. et al. in Proc. Soc. exp. Biol. (N.Y.), 111, 544, (1962). Male Sprague-Dawley rats of approximately 200 g body weight, and in group sizes of n=5, were given the substances subcutaneously (0.2 ml/100 g of body weight, dissolved in sesame oil). Controls were given sesame oil alone. 15 minutes later, 0.1 ml of a 0.5% solution of carrageenin was injected into the left hind paw. Prior to this, and at 3 h and 6 h afterwards, the paw volume was measured (ml) and the increase in swelling was ascertained by comparing with the preliminary value. The numbers are mean value and standard deviation (x±s). Statistical significance was assessed using the Dunnett test.

[2] = tested on: Gluconeogenesis (liver glycogen and glucose); assay: Systemic effect: Gluconeogenesis in rats; assay type: in vivo, Male Sprague-Dawley rats
Method: 2b. Testing for systemic effect: Gluconeogenesis in rats
Male Sprague-Dawley rats of approximately 140 g in weight were adrenalectomized. They were given an 0.9% solution of sodium chloride as their drinking water. 48 h later, the animals' feed was removed for 24 h. On the day of the experiment (3 days after adrenalectomy and 1 day of starvation), the experimental preparations were administered s.c. (2 ml/kg in sesame oil, with controls only receiving this vehicle). The animals were decapitated 6 h later, with 1 g of liver being removed in each case. The sample was taken up in 5 ml of 0.6M perchloric acid. Following homogenization and centrifugation, glucose was determined in the supernatant. The precipitate (glycogen) was hydrolyzed enzymically with amyloglucosidase, and glucose was also determined in the resulting hydrolysate (hexokinase test kit, from Boehringer Mannheim).

gluconeogenic effect (in words) ([2]; 0.1 mg/kg, p<0.05, Dunnett's test)	SMILES	inflammatory edematous swelling, difference between right and left auricle weights (x ± s) ([1]; 0.03 mg/ml epicutaneous)	Inhibition in % ([1]; 0.03 mg/ml epicutaneous)	inflammatory edematous swelling, difference between right and left auricle weights (x ± s) ([1]; 0.1 mg/ml epicutaneous)	Inhibition in % ([1]; 0.1 mg/ml epicutaneous)	inflammatory edematous swelling, difference between right and left auricle weights (x ± s) ([1]; 0.3 mg/ml epicutaneous)	Inhibition in % ([1]; 0.3 mg/ml epicutaneous)	local antiinflammatory effect (in words) ([1]; mouse, in vivo)	effect on paw edema (in words) (carrageenin paw edema; 0.1 mg/kg s.c.)	Increase at 3 h (paw volume) (carrageenin paw edema; 0.1 mg/kg s.c.)	Increase at 6 h (paw volume) (carrageenin paw edema; 0.1 mg/kg s.c.)	effect on paw edema (in words) (carrageenin paw edema; 0.3 mg/kg s.c.)	Increase at 3 h (paw volume) (carrageenin paw edema; 0.3 mg/kg s.c.)	Increase at 6 h (paw volume) (carrageenin paw edema; 0.3 mg/kg s.c.)	advantage (factor) over deoxymethasone regarding gluconeogenic effect ([2]; rat, in vivo)
	C[C@@H]1C[C@H]2[C@@H]3CCC4=CC(=O)C=C[C@]4(C)[C@@]3(F)[C@@H](O)C[C@]2(C)[C@H]1C(=O)COC(=O)/C=C/c1ccccc1 [Cmpnd. I, Deoxymethasone 21-cinnamic ester]	7.7 ± 3.7 mg	43%	3.9 ± 2.9 mg	71%	2.3 ± 1.3 mg	83%	strong, local antiinflammatory effect	does not	0.40 ± 0.06 mL	0.39 ± 0.12 mL	practically without effect	0.46 ± 0.12 mL	0.32 ± 0.05 mL	3-10
already exhibits this undesirable effect	C[C@@H]1C[C@H]2[C@@H]3CCC4=CC(=O)C=C[C@]4(C)[C@@]3(F)[C@@H](O)C[C@]2(C)[C@H]1C(=O)CO [Deoxymethasone, 9α-fluoro-16α-methyl-1(2)-dehydrocorticosterone]	8.6 ± 3.1 mg	36%	3.9 ± 3.0 mg	71%	2.8 ± 2.3 mg	79%		significant effect	0.28 mL	0.23 ± 0.09 mL	almost completely inhibits the inflammation	0.17 mL	0.03 ± 0.03 mL	
